# Laboratory results published in ChEMBL document CHEMBL1201862, “PubChem BioAssay data set” (2004).
# Activity calls are given as the source filed them.
# Key:
# [1] = NIH3T3 cell viability loss – ATP luminescence, mouse fibroblasts, counter-screen, dose response (AID 2010); type: functional, cell-based;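 note: cells exposed to compound for about 90 hours before reading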
# [2] = Trypanosoma cruzi growth suppression in host cells – NIH3T3 host cells, beta-gal luminescence, confirmation (AID 2044); type: functional, cell-based;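 note: intracellular parasites grown in NIH/3T3 mouse fibroblasts as host cells; luminescent beta-galactosidase reporter signal from transgenic T. cruzi replicating inside host cells; inhibitors lower the luminescence signal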
# [3] = biological target: T1, Mannose-6-phosphate isomerase (Homo sapiens, UniProt P34949); assay: MPI inhibition at elevated mannose 6-phosphate – biochemical, fluorescence intensity, high mannose 6-phosphate, primary screen (AID 1220)
# T1 sequence (P34949 whole entry): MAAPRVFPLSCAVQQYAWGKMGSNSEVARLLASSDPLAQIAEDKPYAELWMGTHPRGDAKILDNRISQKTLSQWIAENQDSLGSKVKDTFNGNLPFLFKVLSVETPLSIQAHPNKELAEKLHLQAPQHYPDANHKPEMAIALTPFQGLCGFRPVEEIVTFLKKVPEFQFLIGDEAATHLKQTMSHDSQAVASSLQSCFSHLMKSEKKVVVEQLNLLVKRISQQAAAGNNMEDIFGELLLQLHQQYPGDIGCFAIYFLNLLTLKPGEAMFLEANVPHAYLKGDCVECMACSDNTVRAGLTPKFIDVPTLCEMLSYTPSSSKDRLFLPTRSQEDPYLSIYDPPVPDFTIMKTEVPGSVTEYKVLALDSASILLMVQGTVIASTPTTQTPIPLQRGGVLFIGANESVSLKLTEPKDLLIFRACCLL
# [4] = A549 cell cytotoxicity, dose response, cytotoxicity control, plate reader, cherry-pick, antagonist series (AID 743412); type: functional, cell-based
# [5] = blockade of melanocortin 4 receptor signaling – cell-based, plate reader, cherry pick, counter-screen for LGR2 antagonist project, dose response (AID 743444); type: functional;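 note: transfected HEK 293 cells stimulated with alpha-MSH peptide; potency of inhibitors of the alpha-MSH evoked signal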
# [6] = blockers of bursicon-stimulated LGR2 cAMP reporter – cell-based, HEK293, CRE-luciferase reporter, cherry pick, set 2, dose response (AID 743343); type: functional;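 note: transfected cells were stimulated with diluted bursicon conditioned medium after compound addition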
# [7] = toxicity toward HepG2 liver cells – cell-based, plate reader, cherry-pick, antagonist series, cytotoxicity control, dose response (AID 743416); type: functional
# [8] = biological target: Induced myeloid leukemia cell differentiation protein Mcl-1 (Homo sapiens, UniProt Q07820); type: functional
# Chain of Induced myeloid leukemia cell differentiation protein Mcl-1 (Q07820 whole entry): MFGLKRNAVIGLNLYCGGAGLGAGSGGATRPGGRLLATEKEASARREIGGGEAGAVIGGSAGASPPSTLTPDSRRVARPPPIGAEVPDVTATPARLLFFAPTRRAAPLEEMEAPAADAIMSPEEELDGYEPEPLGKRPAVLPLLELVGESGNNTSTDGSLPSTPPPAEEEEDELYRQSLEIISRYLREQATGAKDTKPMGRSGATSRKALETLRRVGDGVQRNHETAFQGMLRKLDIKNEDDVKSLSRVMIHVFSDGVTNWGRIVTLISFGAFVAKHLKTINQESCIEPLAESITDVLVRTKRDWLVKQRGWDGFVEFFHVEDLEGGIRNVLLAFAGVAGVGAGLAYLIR
# Kallikrein-7 = Kallikrein-7 (Homo sapiens, UniProt P49862); assay: Fluorescence Intensity-based biochemical primary high throughput dose response assay to identify activators of kallikrein-7 (K7) zymogen.
# Chain of Kallikrein-7 (P49862 whole entry): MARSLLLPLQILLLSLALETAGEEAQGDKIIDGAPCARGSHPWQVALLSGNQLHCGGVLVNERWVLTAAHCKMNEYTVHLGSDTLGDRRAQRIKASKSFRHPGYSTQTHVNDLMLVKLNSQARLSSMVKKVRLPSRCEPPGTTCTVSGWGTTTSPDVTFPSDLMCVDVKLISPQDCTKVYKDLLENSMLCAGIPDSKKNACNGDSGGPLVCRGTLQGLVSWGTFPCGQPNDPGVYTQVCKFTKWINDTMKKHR
# cells = type: functional
# [9] = THP-1 cell cytotoxicity, dose response, cytotoxicity control for non-replicating M. tuberculosis project (AID 489025); type: functional
# INS1 = assay: INS-1E survival protection against cytokine death – cell-based, luminescence, retest, dose response (AID 449756); type: functional; details: Rattus norvegicus;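 note: cell death triggered by IL-1 beta plus TNF-alpha plus IFN-gamma mixture; protective hits raise ATP signal compared with cytokine alone wells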
# [10] = biological target: T2, Heat shock factor protein 1 (Mus musculus, UniProt P38532); assay: decrease of HSF1-responsive luciferase luminescence – cell-based, NIH3T3, dose retest, confirmation (AID 2382); type: functional;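 note: NIH3T3 fibroblasts with HSF1-driven luciferase reporter stressed by proteasome inhibitor MG132; luminescence from HSF1-driven luciferase expression after 8 hours of MG132 stress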
# T2 sequence (P38532 whole entry): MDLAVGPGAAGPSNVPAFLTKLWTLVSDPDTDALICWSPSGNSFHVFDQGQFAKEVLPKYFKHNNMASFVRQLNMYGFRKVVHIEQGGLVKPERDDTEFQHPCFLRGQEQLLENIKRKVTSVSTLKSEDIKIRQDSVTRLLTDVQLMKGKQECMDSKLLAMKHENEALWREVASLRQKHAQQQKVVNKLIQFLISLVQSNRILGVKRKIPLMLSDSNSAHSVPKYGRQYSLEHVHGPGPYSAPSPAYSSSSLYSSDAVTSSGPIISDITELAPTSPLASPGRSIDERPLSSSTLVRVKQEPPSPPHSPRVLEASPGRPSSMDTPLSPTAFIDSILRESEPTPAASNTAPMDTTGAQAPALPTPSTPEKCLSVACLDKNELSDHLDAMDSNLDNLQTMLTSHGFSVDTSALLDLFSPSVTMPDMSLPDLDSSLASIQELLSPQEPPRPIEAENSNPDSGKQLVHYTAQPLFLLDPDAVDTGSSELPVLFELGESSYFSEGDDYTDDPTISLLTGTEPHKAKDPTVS
# Genome polyprotein = Genome polyprotein (dengue virus type 2, UniProt P29990); assay: flavivirus cap methylation enzyme inhibition – biochemical, confirmation dose response, primary screen (AID 588689); type: functional
# Chain of Genome polyprotein (P29990 2492-3391 limits assumed): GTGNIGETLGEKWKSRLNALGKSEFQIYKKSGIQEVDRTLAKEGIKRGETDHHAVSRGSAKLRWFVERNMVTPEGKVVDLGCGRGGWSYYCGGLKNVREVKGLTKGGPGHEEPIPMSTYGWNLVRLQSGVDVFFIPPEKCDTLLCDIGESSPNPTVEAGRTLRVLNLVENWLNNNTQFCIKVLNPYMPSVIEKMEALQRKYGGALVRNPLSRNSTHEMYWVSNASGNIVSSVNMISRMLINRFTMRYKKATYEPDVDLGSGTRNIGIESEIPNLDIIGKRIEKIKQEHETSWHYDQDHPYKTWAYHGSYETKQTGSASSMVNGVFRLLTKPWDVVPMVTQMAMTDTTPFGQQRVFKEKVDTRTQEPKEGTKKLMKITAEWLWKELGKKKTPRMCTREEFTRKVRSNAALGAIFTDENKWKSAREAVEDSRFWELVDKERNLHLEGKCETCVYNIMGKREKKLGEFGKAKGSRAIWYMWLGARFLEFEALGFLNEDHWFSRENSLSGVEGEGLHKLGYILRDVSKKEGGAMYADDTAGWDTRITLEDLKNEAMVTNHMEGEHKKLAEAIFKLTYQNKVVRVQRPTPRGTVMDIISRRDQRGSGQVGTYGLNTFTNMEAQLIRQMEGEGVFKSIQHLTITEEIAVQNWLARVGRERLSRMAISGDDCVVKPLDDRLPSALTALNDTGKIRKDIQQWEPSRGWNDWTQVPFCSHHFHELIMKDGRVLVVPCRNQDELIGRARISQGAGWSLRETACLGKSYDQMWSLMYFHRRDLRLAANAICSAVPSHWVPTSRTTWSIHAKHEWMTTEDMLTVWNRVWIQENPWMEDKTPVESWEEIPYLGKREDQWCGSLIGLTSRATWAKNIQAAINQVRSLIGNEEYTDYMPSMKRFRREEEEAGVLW
# BJ [11] = assay: BJ-TERT fibroblast viability loss – cell-based, RAS-independent, luminescence, dose response (AID 1933); type: functional; details: Homo sapiens
# BJ [12] = assay: cells; type: functional, cell-based; details: Homo sapiens
# [13] = DRD fibroblast viability loss – cell-based, non-viral oncogenic, luminescence, dose response (AID 1934); type: functional; details: Homo sapiens
# BJ [14] = assay: BJ-TERT-LT-ST fibroblast viability loss – cell-based, RAS-independent, luminescence, dose response (AID 1935); type: functional; details: Homo sapiens;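 note: BJ fibroblasts immortalized with TERT plus LT and ST oncogenes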
# [15] = biological target: Luciferin 4-monooxygenase (Photinus pyralis, UniProt P08659); assay: inhibition of purified Photinus pyralis luciferase – biochemical, luminescence, dose response (AID 1891)
# Chain of Luciferin 4-monooxygenase (P08659 whole entry): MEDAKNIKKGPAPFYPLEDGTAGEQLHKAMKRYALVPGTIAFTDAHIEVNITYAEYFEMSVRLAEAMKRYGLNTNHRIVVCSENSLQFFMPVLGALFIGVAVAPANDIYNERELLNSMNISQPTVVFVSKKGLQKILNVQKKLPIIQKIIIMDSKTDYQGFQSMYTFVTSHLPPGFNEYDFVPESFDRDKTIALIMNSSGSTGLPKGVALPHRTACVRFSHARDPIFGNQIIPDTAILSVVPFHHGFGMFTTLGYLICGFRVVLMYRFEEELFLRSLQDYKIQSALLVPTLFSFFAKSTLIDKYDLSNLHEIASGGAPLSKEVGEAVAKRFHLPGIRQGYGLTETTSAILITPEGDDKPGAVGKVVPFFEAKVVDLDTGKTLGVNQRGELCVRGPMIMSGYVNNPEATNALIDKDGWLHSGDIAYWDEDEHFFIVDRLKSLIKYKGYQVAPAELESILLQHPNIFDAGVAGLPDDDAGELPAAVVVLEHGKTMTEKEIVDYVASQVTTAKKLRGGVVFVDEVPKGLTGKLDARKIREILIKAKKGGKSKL
# [16] = Luminescence Cell-Based Dose Confirmation HTS to Identify Inhibitors of Platelet Dense Granule Release. [Related pubchem assays: 1663 (Primary HTS), 1678 (Summary of Project)]; type: functional
# Caspase-3 = biological target: T3, Caspase-3 (Homo sapiens, UniProt P42574); type: functional;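 note: Dose-response selectivity test against caspase-3 for candidate inhibitors of sentrin-specific proteases (SENPs)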
# T3 sequence (P42574 whole entry): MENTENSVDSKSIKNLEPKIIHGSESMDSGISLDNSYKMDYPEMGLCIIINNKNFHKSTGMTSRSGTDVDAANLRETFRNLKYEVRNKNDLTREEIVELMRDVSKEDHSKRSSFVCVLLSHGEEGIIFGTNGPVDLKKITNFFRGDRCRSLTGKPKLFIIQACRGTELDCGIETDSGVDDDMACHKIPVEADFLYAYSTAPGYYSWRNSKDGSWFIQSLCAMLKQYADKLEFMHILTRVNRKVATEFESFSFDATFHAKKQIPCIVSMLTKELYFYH
# [17] = biological target: T4, Sentrin-specific protease 6 (Homo sapiens, UniProt Q9GZR1); type: functional;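 note: Luminescence-based dose-response confirmatory assay of SENP6 inhibition, following up an ultra-high-throughput screen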
# T4 sequence (Q9GZR1 whole entry): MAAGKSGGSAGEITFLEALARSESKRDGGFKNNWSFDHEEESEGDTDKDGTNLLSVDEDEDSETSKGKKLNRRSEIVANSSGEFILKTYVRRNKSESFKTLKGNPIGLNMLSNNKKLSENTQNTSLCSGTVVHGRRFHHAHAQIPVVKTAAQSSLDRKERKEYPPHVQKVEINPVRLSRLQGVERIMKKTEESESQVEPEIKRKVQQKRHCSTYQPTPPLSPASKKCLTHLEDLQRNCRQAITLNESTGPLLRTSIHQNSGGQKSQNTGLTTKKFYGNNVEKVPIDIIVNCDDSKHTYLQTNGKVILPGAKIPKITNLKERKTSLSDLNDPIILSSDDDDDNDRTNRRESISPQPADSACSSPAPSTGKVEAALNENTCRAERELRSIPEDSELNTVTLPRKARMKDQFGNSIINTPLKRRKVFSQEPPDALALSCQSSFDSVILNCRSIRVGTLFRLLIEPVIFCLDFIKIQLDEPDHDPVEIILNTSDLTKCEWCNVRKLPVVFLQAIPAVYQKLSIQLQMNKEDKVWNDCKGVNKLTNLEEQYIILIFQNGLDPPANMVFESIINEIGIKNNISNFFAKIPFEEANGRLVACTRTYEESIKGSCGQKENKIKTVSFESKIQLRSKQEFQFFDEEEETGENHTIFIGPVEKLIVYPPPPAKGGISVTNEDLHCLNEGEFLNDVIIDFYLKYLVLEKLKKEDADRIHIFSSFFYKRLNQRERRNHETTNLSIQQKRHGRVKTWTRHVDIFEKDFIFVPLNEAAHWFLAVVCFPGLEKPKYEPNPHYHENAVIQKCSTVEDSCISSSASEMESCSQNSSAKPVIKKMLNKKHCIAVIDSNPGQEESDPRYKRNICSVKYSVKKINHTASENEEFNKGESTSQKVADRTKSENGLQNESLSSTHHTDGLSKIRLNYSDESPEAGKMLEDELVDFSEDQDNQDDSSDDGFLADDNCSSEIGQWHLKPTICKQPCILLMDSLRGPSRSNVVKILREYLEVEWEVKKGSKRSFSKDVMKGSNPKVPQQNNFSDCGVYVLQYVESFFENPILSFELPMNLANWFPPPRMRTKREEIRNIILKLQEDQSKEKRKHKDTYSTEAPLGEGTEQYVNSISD
# [18] = biological target: T5, Sentrin-specific protease 8 (Homo sapiens, UniProt Q96LD8); type: functional;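 note: luminescence read-out of SENP8 inhibition, dose-response confirmation following an ultra-high-throughput screen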
# T5 sequence (Q96LD8 whole entry): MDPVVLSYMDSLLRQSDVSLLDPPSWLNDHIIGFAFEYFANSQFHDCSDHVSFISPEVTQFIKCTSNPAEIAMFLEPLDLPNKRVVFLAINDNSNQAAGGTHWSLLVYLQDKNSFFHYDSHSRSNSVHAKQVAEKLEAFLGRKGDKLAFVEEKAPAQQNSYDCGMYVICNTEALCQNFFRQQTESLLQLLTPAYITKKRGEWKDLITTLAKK
# [19] = biological target: T6, Sentrin-specific protease 7 (Homo sapiens, UniProt Q9BQF6); type: functional;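 note: Luminescence-based dose-response confirmation of ultra-high-throughput screening hits, measuring inhibition of SENP7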
# T6 sequence (Q9BQF6 whole entry): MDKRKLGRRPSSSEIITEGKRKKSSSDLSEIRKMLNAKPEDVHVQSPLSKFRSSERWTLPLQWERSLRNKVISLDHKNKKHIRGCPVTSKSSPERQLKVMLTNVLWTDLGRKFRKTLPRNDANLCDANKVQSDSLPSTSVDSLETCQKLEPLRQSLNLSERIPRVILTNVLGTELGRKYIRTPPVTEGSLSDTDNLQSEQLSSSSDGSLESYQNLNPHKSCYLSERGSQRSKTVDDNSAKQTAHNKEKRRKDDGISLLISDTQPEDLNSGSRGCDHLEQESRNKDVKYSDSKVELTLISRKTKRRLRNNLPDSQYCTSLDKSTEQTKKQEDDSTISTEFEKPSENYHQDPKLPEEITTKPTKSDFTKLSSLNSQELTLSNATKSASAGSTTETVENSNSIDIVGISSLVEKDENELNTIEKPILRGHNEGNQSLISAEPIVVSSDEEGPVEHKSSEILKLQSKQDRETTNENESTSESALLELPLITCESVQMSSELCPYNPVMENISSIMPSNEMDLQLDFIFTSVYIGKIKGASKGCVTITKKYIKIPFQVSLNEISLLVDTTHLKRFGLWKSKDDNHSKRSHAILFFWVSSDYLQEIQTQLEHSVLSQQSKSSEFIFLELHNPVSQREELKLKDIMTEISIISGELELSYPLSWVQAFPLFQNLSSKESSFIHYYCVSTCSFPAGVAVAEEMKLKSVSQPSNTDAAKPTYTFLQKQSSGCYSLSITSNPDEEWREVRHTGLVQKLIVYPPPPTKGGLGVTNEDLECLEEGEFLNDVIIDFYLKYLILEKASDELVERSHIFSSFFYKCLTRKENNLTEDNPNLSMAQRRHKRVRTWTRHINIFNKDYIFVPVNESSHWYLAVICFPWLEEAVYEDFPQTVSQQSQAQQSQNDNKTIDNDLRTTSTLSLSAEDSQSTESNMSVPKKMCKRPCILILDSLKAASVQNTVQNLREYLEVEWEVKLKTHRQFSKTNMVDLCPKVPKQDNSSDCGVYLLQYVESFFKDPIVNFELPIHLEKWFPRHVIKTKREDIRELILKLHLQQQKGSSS
smiles,measurement,setting,value
CC(C)(C)C1=CC(=O)C(=O)C(C(C)(C)C)=C1,EC50,[1],7.34 µM (active)
same,EC50,[2],0.62 µM (active)
same,IC50,[3],9.84 µM (active)
O=C(Nc1nc2ccccc2[nH]1)c1ccc(Cl)cc1,AC50,[4],29.1 µM (active)
same,AC50,[5],6.33 µM (active)
same,AC50,[6],10.1 µM (active)
same,AC50,[7],29.5 µM (active)
CC(=O)c1ccc(Nc2nc(-c3sc(C)nc3C)cs2)cc1,AC50,[4],2.08 µM (active)
same,AC50,[5],34 µM (active)
same,AC50,[6],21.8 µM (active)
same,AC50,[7],2.87 µM (active)
O=C(Nc1ccc2nc3ccccc3nc2c1)c1ccccc1,IC50,[8],> 54 µM (active)
same,EC50,Kallikrein-7,> 69.5 µM (inactive)
COC(=O)C1=CNC=C(C(=O)OC)C1c1ccc(C(=O)OC)cc1,EC50,Kallikrein-7,> 69.5 µM (inactive)
CCC/C(=N\NC(=O)c1ccco1)c1ccc(Cl)s1,IC50,cells,13.9 µM (active)
same,CC50,[9],> 40 µM (active)
O=C(c1ccc([N+](=O)[O-])s1)N1CCN(c2cccc(Cl)c2)CC1,AC50,INS1,7.83 µM (active)
same,EC50,[10],> 195 µM (not active)
same,IC50,cells,1.11 µM (active)
same,CC50,[9],35.6 µM (active)
COC(=O)COc1cccc(NC(=O)COc2ccccc2)c1,IC50,cells,1.65 µM (active)
same,CC50,[9],> 40 µM (active)
Cc1cccc(-n2c(SCC(=O)N3CCCC3)nc3nnc(C)c-3c2N)c1,EC50,Kallikrein-7,13.3 µM (inactive)
CCc1cc(N2CCOCC2)cc2c1[nH]c1ccccc12,IC50,[3],> 50 µM (not active)
O=C(NC1CCCCCC1)c1cc2c(=O)n3ccccc3nc2s1,EC50,Kallikrein-7,> 69.5 µM (inactive)
CN1C(=O)NC(=O)/C(=C/c2ccc([N+](=O)[O-])s2)C1=O,IC50,Genome polyprotein,17.4 µM (active)
same,EC50,BJ [11],11.2 µM (active)
same,IC50,cells,23.2 µM (active)
same,CC50,[9],33.8 µM (active)
same,EC50,BJ [12],> 150 µM (not active)
same,EC50,[13],> 150 µM (not active)
same,EC50,BJ [14],> 150 µM (not active)
CCc1cccc(OCCCn2ccnc2)c1,CC50,[9],> 40 µM (active)
O=C(O)c1ccc(/C=N/NC(=O)c2cc(-c3cccs3)nc3ccccc23)cc1,EC50,Kallikrein-7,49.6 µM (inactive)
COCCN(CCOC)c1cc(C)c(C#N)c2nc3ccccc3n12,EC50,Kallikrein-7,11.2 µM (inactive)
CCCCN1C(=O)/C(=N\c2cccc3cnccc23)c2ccccc21,EC50,[15],> 112 µM (not active)
same,IC50,[3],> 50 µM (not active)
same,EC50,[16],> 112 µM (not active)
COCCn1c(C)cc(C(=O)CSc2nc3ccccc3s2)c1C,AC50,[5],6.46 µM (active)
same,IC50,Caspase-3,26.4 µM (active)
same,AC50,[6],3.81 µM (active)
same,IC50,[17],27.4 µM (active)
same,AC50,[7],41.8 µM (active)
same,IC50,[18],83.7 µM (active)
same,IC50,[19],8.92 µM (active)
O=C(Nc1ccc2c(c1)C(=O)NC2=O)c1ccc(S(=O)(=O)N2CCCC2)cc1,EC50,Kallikrein-7,8.55 µM (active)
